According to the NIST ThermoML archive (doi:10.1016/j.tca.2014.09.011):
Several values for one entry are separate records, joined by “and”; a condition that tells them apart may be missing. Identical values can stand only once. Numbers after ± are expanded uncertainties.

Settings: Liquid, Rate of evaporation

CCCCO [butan-1-ol]
vapor or sublimation pressure (301.02 K): 1.09 ± 0.11 kPa | vapor or sublimation pressure (305.59 K): 1.46 ± 0.15 kPa | vapor or sublimation pressure (310.16 K): 1.92 ± 0.19 kPa | vapor or sublimation pressure (310.26 K): 1.96 ± 0.2 kPa | vapor or sublimation pressure (310.29 K): 1.9 ± 0.2 kPa and 1.91 ± 0.19 kPa | vapor or sublimation pressure (314.75 K): 2.67 ± 0.27 kPa | vapor or sublimation pressure (314.76 K): 2.6 ± 0.3 kPa and 2.5 ± 0.3 kPa | vapor or sublimation pressure (314.81 K): 2.61 ± 0.26 kPa | vapor or sublimation pressure (321.34 K): 4.15 ± 0.42 kPa and 4.19 ± 0.42 kPa | vapor or sublimation pressure (322.07 K): 4.33 ± 0.43 kPa | vapor or sublimation pressure (322.58 K): 4.48 ± 0.45 kPa | vapor or sublimation pressure (322.69 K): 4.52 ± 0.45 kPa | vapor or sublimation pressure (323.09 K): 4.54 ± 0.45 kPa | vapor or sublimation pressure (323.14 K): 4.54 ± 0.45 kPa | vapor or sublimation pressure (323.5 K): 4.62 ± 0.46 kPa | vapor or sublimation pressure (323.67 K): 4.69 ± 0.47 kPa | vapor or sublimation pressure (323.78 K): 4.75 ± 0.48 kPa | vapor or sublimation pressure (323.9 K): 4.74 ± 0.47 kPa | vapor or sublimation pressure (324.18 K): 4.79 ± 0.48 kPa | vapor or sublimation pressure (324.28 K): 4.85 ± 0.49 kPa | vapor or sublimation pressure (324.57 K): 4.91 ± 0.49 kPa | vapor or sublimation pressure (324.59 K): 4.87 ± 0.49 kPa | vapor or sublimation pressure (324.8 K): 4.95 ± 0.5 kPa | vapor or sublimation pressure (324.91 K): 4.98 ± 0.5 kPa | vapor or sublimation pressure (333.51 K): 8.09 ± 0.81 kPa | vapor or sublimation pressure (334.32 K): 8.38 ± 0.84 kPa | vapor or sublimation pressure (341.78 K): 12.79 ± 1.3 kPa | vapor or sublimation pressure (343.2 K): 13.52 ± 1.4 kPa | vapor or sublimation pressure (343.36 K): 13.71 ± 1.4 kPa | vapor or sublimation pressure (343.39 K): 14.44 ± 1.4 kPa | vapor or sublimation pressure (352.7 K): 21.03 ± 2.1 kPa | vapor or sublimation pressure (360.58 K): 32.09 ± 3.2 kPa

CCO [ethanol]
vapor or sublimation pressure (301.1 K): 9.07 ± 0.91 kPa | vapor or sublimation pressure (305.47 K): 10.94 ± 1.1 kPa | vapor or sublimation pressure (305.54 K): 11.69 ± 1.2 kPa | vapor or sublimation pressure (305.63 K): 11.08 ± 1.1 kPa | vapor or sublimation pressure (305.68 K): 11.85 ± 1.2 kPa

CCCCCCCCO [octan-1-ol]
vapor or sublimation pressure (319.82 K): 0.06 ± 0.01 kPa | vapor or sublimation pressure (324.46 K): 0.09 ± 0.01 kPa | vapor or sublimation pressure (333.93 K): 0.21 ± 0.02 kPa | vapor or sublimation pressure (343.23 K): 0.38 ± 0.04 kPa | vapor or sublimation pressure (343.39 K): 0.4 ± 0.1 kPa | vapor or sublimation pressure (348.15 K): 0.54 ± 0.05 kPa | vapor or sublimation pressure (362.32 K): 1.36 ± 0.14 kPa | vapor or sublimation pressure (390.95 K): 6.14 ± 0.61 kPa

Cc1ccccc1 [toluene]
vapor or sublimation pressure (300.89 K): 4.47 ± 0.45 kPa | vapor or sublimation pressure (305.64 K): 5.17 ± 0.52 kPa | vapor or sublimation pressure (305.68 K): 5.23 ± 0.52 kPa | vapor or sublimation pressure (324.21 K): 13.4 ± 1.3 kPa
